Experimental data from PubChem BioAssay (NCI).
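Five compound concentrations were applied to cells in 96-well plates for 48 hours; endpoints were derived by simple linear interpolation of the resulting dose-response curve. Here, GI50 denotes the concentration required for 50% inhibition of growth. TGI: concentration producing complete growth inhibition.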

Legend:
Test in all cases: NCI-60 cell line screen, 48 h
[1] = test system: HCC-2998 colon
[2] = test system: ACHN renal
[3] = test system: NCI-H23 lung
[4] = test system: HCT-15 colon
[5] = test system: MALME-3M melanoma
[6] = test system: SNB-78 CNS
[7] = test system: K-562 leukemia
[8] = test system: SW-620 colon
[9] = test system: SF-268 CNS
[10] = test system: HOP-92 NSCLC
[11] = test system: OVCAR-8 ovarian
[12] = test system: SR leukemia
[13] = test system: MOLT-4 leukemia
[14] = test system: KM12 colon
[15] = test system: RXF 393 renal
[16] = test system: TK-10 renal
[17] = test system: SK-MEL-28 melanoma
[18] = test system: NCI-H226 lung
[19] = test system: SNB-19 CNS
[20] = test system: SK-MEL-2 melanoma
[21] = test system: KM20L2 colon
[22] = test system: DMS 273 small cell lung
[23] = test system: DMS 114 small cell lung
[24] = test system: COLO 205 colon
[25] = test system: SN12C renal
[26] = test system: HCT-116 colon
[27] = test system: SF-295 CNS
[28] = test system: HT29 colon
[29] = test system: 786-0 renal
[30] = test system: SF-539 CNS
[31] = test system: A549 NSCLC
[32] = test system: LXFL 529 NSCLC
[33] = test system: UACC-257 melanoma
[34] = test system: OVCAR-5 ovarian
[35] = test system: EKVX NSCLC
[36] = test system: U251 CNS
[37] = test system: UO-31 renal
[38] = test system: RPMI-8226 leukemia
[39] = test system: NCI-H460 lung
[40] = test system: SNB-75 CNS
[41] = test system: M19-MEL melanoma
[42] = test system: DLD-1 colon
[43] = test system: OVCAR-4 ovarian
[44] = test system: HOP-62 NSCLC
[45] = test system: M14 melanoma
[46] = test system: CCRF-CEM leukemia
[47] = test system: OVCAR-3 ovarian
[48] = test system: LOX IMVI melanoma
[49] = test system: SK-OV-3 ovarian
[50] = test system: HL-60(TB) leukemia
[51] = test system: IGROV1 ovarian
[52] = test system: NCI-H522 lung
[53] = test system: UACC-62 melanoma
[54] = test system: SK-MEL-5 melanoma
[55] = test system: XF 498 CNS
[56] = test system: A498 renal
[57] = test system: CAKI-1 renal

For `COC(=O)c1cc(Cl)ccc1NC(=O)C1CCCCC1`, the TGI [1] was > 100 µM, the TGI [2] was > 100 µM and the TGI [3] was > 100 µM. The TGI [4] was > 100 µM, the TGI [5] was > 100 µM and the TGI [6] was > 100 µM. For the same compound, the TGI [7] was > 100 µM, the TGI [8] was > 100 µM and the TGI [9] was > 100 µM. For the same compound, the TGI [10] was > 100 µM, the TGI [11] was > 100 µM and the TGI [12] was > 100 µM. For the same compound, the TGI [13] was > 100 µM, the TGI [14] was > 100 µM and the TGI [15] was > 100 µM. For the same compound, the TGI [16] was > 100 µM, the TGI [17] was > 100 µM and the TGI [18] was > 100 µM. The TGI [19] was > 100 µM, the TGI [20] was > 100 µM and the TGI [21] was > 100 µM. The TGI [22] was > 100 µM, the TGI [23] was > 100 µM and the TGI [24] was > 100 µM. For the same compound, the TGI [25] was > 100 µM, the TGI [26] was > 100 µM and the TGI [27] was > 100 µM. For the same compound, the TGI [28] was > 100 µM, the TGI [29] was > 100 µM and the TGI [30] was > 100 µM. For the same compound, the TGI [31] was > 100 µM, the TGI [32] was > 100 µM and the TGI [33] was > 100 µM. For the same compound, the TGI [34] was > 100 µM, the TGI [35] was > 100 µM and the TGI [36] was > 100 µM. For the same compound, the TGI [37] was > 100 µM and the TGI [38] was > 100 µM.

`Nc1nc(SCCC/C=C/B(O)O)nc2c1ncn2C1OC(CO)C(O)C1O` (configuration not stated) was tested, and the TGI [1] was > 243 µM, the TGI [2] was > 243 µM and the TGI [3] was > 243 µM. The TGI [4] was > 243 µM, the TGI [39] was > 243 µM and the TGI [40] was > 243 µM. For the same compound, the TGI [5] was > 243 µM, the TGI [41] was > 243 µM and the TGI [6] was > 243 µM. For the same compound, the TGI [7] was > 243 µM, the TGI [8] was > 243 µM and the TGI [9] was > 243 µM. For the same compound, the TGI [42] was > 243 µM, the TGI [10] was > 243 µM and the TGI [11] was > 243 µM. The TGI [12] was > 243 µM, the TGI [13] was > 243 µM and the TGI [14] was > 243 µM. For the same compound, the TGI [15] was > 243 µM, the TGI [16] was > 243 µM and the TGI [17] was > 243 µM. The TGI [18] was > 243 µM, the TGI [43] was > 243 µM and the TGI [44] was > 243 µM. For the same compound, the TGI [19] was > 243 µM, the TGI [20] was > 243 µM and the TGI [45] was > 243 µM. For the same compound, the TGI [21] was > 243 µM, the TGI [22] was > 243 µM and the TGI [46] was > 243 µM. The TGI [47] was > 243 µM, the TGI [24] was > 243 µM and the TGI [25] was > 243 µM. The TGI [26] was > 243 µM, the TGI [27] was > 243 µM and the TGI [28] was > 243 µM. The TGI [48] was > 243 µM, the TGI [30] was > 243 µM and the TGI [31] was > 243 µM. For the same compound, the TGI [49] was > 243 µM, the TGI [32] was > 243 µM and the TGI [33] was > 243 µM. The TGI [50] was > 243 µM, the TGI [34] was > 243 µM and the TGI [35] was > 243 µM. For the same compound, the TGI [36] was > 243 µM, the TGI [51] was > 243 µM and the TGI [52] was > 243 µM. The TGI [53] was > 243 µM, the TGI [54] was > 243 µM and the TGI [55] was > 243 µM. The TGI [56] was > 243 µM.

In the case of `CCOC(=O)C1=C(C)N2CCCOC2(C)C(C(=O)OC)C1c1cccc([N+](=O)[O-])c1` (configuration not stated), the TGI [1] is reported as > 100 µM, the TGI [2] is reported as > 100 µM and the TGI [3] is reported as > 100 µM. For the same compound, the TGI [39] was > 100 µM, the TGI [40] was 75.8 µM and the TGI [41] was > 100 µM. For the same compound, the TGI [7] was > 100 µM, the TGI [8] was > 100 µM and the TGI [9] was > 100 µM. For the same compound, the TGI [10] was > 100 µM, the TGI [11] was > 100 µM and the TGI [12] was > 100 µM. For the same compound, the TGI [13] was > 100 µM, the TGI [14] was > 100 µM and the TGI [15] was > 100 µM. The TGI [16] was > 100 µM, the TGI [17] was > 100 µM and the TGI [18] was > 100 µM. The TGI [44] was > 100 µM, the TGI [19] was > 100 µM and the TGI [20] was > 100 µM. For the same compound, the TGI [45] was > 100 µM, the TGI [21] was > 100 µM and the TGI [57] was > 100 µM. The TGI [46] was > 100 µM, the TGI [47] was > 100 µM and the TGI [23] was > 100 µM. For the same compound, the TGI [24] was > 100 µM, the TGI [26] was > 100 µM and the TGI [27] was > 100 µM. For the same compound, the TGI [28] was > 100 µM, the TGI [30] was > 100 µM and the TGI [31] was > 100 µM. For the same compound, the TGI [32] was > 100 µM, the TGI [33] was > 100 µM and the TGI [50] was > 100 µM. The TGI [35] was > 100 µM, the TGI [51] was > 100 µM and the TGI [37] was > 100 µM. For the same compound, the TGI [53] was > 100 µM, the TGI [38] was > 100 µM and the TGI [54] was > 100 µM.

In the case of `COc1cc2c(cc1OC)C(C1(O)CCCCC1)NCC2` (configuration not stated), the TGI [1] is reported as > 100 µM, the TGI [2] is reported as > 100 µM and the TGI [3] is reported as > 100 µM. The TGI [4] was > 100 µM, the TGI [39] was > 100 µM and the TGI [40] was > 100 µM. For the same compound, the TGI [5] was > 100 µM, the TGI [41] was > 100 µM and the TGI [7] was > 100 µM. For the same compound, the TGI [8] was > 100 µM, the TGI [9] was > 100 µM and the TGI [42] was > 100 µM. The TGI [10] was > 100 µM, the TGI [11] was > 100 µM and the TGI [12] was > 100 µM. For the same compound, the TGI [13] was > 100 µM, the TGI [14] was > 100 µM and the TGI [15] was > 100 µM. For the same compound, the TGI [16] was > 100 µM, the TGI [17] was > 100 µM and the TGI [18] was > 100 µM. For the same compound, the TGI [44] was > 100 µM, the TGI [20] was > 100 µM and the TGI [45] was > 100 µM. For the same compound, the TGI [21] was > 100 µM, the TGI [22] was > 100 µM and the TGI [46] was > 100 µM. The TGI [47] was > 100 µM, the TGI [24] was > 100 µM and the TGI [25] was > 100 µM. The TGI [26] was > 100 µM, the TGI [27] was > 100 µM and the TGI [28] was > 100 µM. The TGI [48] was > 100 µM, the TGI [49] was > 100 µM and the TGI [32] was > 100 µM. The TGI [33] was > 100 µM, the TGI [50] was > 100 µM and the TGI [34] was > 100 µM. For the same compound, the TGI [35] was > 100 µM, the TGI [36] was > 100 µM and the TGI [51] was > 100 µM. The TGI [37] was > 100 µM, the TGI [53] was > 100 µM and the TGI [38] was > 100 µM. For the same compound, the TGI [54] was > 100 µM and the TGI [55] was > 100 µM.

Compound `O=C(N/N=C/c1cc(Br)cc(Br)c1[O-])c1ccccc1O.O=C(N/N=C/c1cc(Br)cc(Br)c1[O-])c1ccccc1O.[Cl-].[Fe+3]` has a TGI [1] of 5.65 µM, a TGI [2] of 18.3 µM and a TGI [4] of 3.84 µM. For the same compound, the TGI [39] was 17.7 µM, the GI50 [7] was 2590 nM and the TGI [7] was 5.63 µM. For the same compound, the TGI [8] was 14 µM, the TGI [9] was 33.1 µM and the TGI [10] was 6.12 µM. The TGI [11] was 33.4 µM, the TGI [12] was 5.68 µM and the TGI [13] was > 100 µM. The TGI [14] was 81.6 µM, the TGI [15] was 6.39 µM and the TGI [16] was 20 µM. The TGI [18] was 4.97 µM, the TGI [43] was 8.24 µM and the TGI [44] was 5.48 µM. The TGI [19] was 21.3 µM, the TGI [20] was 5.43 µM and the TGI [45] was 9.96 µM. The TGI [21] was 13.9 µM, the TGI [57] was 18.2 µM and the GI50 [46] was 38.6 µM. For the same compound, the TGI [46] was > 100 µM, the TGI [47] was 12.8 µM and the TGI [26] was 10.2 µM. For the same compound, the TGI [27] was 5.98 µM, the TGI [28] was 13.2 µM and the TGI [48] was 15.5 µM. It also gave a TGI [30] of 5.35 µM, a TGI [31] of 36.8 µM and a TGI [49] of 7.22 µM. For the same compound, the TGI [33] was 29.3 µM, the TGI [50] was 6.54 µM and the TGI [34] was 7.61 µM. The TGI [35] was 27.8 µM, the TGI [36] was 4.91 µM and the TGI [51] was 30.6 µM. The TGI [52] was 4.56 µM, the TGI [37] was 20.7 µM and the TGI [53] was 7.99 µM. The TGI [54] was 12.3 µM.
